Here are results for eleven compounds from US20070254931A1, “Thiazole Derivatives Having Vap-1 Inhibitory Activity” (Astellas Pharma Inc., priority 2004, published 2007).

Counter-ions that a name gives are not always drawn.

The IC50 is the concentration that inhibits the measured activity by half. The melting point is the temperature of the solid-liquid transition.

One data set deals with T1, Human plasma SSAO (Homo sapiens, UniProt Q16853).
T1 construct: The enzyme suspension prepared from blood plasma was pre-incubated with a control compound; from tissue; host or cells: human blood plasma
T1 sequence (Q16853 27-763 limits assumed): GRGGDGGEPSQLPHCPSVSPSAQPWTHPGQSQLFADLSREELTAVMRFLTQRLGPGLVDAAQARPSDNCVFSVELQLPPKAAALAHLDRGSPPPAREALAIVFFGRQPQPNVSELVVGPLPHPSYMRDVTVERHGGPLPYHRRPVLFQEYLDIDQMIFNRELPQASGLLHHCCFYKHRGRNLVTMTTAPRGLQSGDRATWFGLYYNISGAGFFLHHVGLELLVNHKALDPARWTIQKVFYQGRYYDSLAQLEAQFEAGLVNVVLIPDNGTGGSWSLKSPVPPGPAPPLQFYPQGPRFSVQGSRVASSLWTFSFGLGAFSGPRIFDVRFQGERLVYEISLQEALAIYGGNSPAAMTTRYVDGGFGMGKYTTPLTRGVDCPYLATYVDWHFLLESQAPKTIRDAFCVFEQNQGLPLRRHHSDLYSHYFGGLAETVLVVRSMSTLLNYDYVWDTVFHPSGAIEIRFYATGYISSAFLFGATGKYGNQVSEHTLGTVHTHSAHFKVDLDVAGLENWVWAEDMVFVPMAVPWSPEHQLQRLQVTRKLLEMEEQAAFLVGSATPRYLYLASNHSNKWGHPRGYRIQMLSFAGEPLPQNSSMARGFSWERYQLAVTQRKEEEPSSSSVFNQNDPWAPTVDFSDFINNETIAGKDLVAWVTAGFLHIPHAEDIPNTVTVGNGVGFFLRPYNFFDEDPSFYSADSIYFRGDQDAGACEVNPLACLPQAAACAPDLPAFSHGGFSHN
The data set can be described thus: VAP-1 enzyme (SSAO) activity in human plasma, radiochemical-enzyme assay with 14C-benzylamine. Format: biochemical. The following applies: human plasma enzyme suspension; pre-incubation 30 min at room temperature; 14C-benzylamine 2×10^−5 mol/l, 37° C., 1 hour; read-out: Inhibitory effect (IC50 values, μM) Human plasma SSAO. The protocol:
VAP-1 enzyme (SSAO) activity in human plasma was determined by a radiochemical-enzyme assay using ^14C-benzylamine as an artificial substrate. The enzyme suspension prepared from blood plasma was pre-incubated with a control compound (Reference Example 1) in 96-well microplate at room temperature for 30 min. The enzyme suspension was then incubated with ^14C-benzylamine (2×10^−5 mol/l final concentration) in a final volume of 50 μl at 37° C. for 1 hour. The enzyme reaction was terminated by adding 2 mol/l (50 μl) citric acid. The oxidized products were directly extracted into a 200 μl toluene scintillator, and its radioactivity was measured by a scintillation spectrometer. Inhibition activity was expressed as IC50 (μmol/l) value.
Test compounds (i.e., the present compounds) inhibited the enzyme activity of human plasma SSAO in comparison with the control compound as shown in Table 1.
With `CC(=O)Nc1nc(-c2ccc(CCCCNC(=N)N)cc2)cs1` [Production Example 7, N-{4-[4-(4-{[amino(imino)methyl]amino}butyl)phenyl]-1,3-thiazol-2-yl}acetamide hydrochloride], the IC50 came to 0.015 µM.
For the compound `CC(=O)Nc1nc(CCc2ccc(NC(=N)N)cc2)c(Cc2ccc(S(N)(=O)=O)cc2)s1` [Production Example 3, N-{4-[2-(4-{[amino(imino)methyl]amino}phenyl)ethyl]-5-[4-(aminosulfonyl)benzyl]-1,3-thiazol-2-yl}acetamide hydrochloride], the concentration for half-maximal inhibition (IC50) turned out to be 0.0045 µM.
For `CC(=O)Nc1nc(CCc2ccc(NC(=N)N)cc2)c(CN(C)C(=O)c2ccc(S(C)(=O)=O)cc2)s1` [Production Example 16, N-({2-(acetylamino)-4-[2-(4-{[amino(imino)methyl]amino}phenyl)ethyl]-1,3-thiazol-5-yl}methyl)-N-methyl-4-(methylsulfonyl)benzamide hydrochloride], the IC50 came out at 0.012 µM.
`CC(=O)Nc1nc(CCc2ccc(NC(=N)N)cc2)cs1` [Reference Example 1, N-{4-[2-(4-{[amino(imino)methyl]amino}phenyl)ethyl]-1,3-thiazol-2-yl}acetamide, reference compound]: the IC50 amounted to 0.033 µM.
In the case of `CC(=O)Nc1nc(CCc2ccc(NC(=N)N)cc2)c(CN2CC[C@@H](C(=O)N(C)C)C2)s1` [Production Example 12, (3R)-1-({2-(acetylamino)-4-[2-(4-{[amino(imino)methyl]amino}phenyl)ethyl]-1,3-thiazol-5-yl}methyl)-N,N-dimethyl-3-pyrrolidinecarboxamide dihydrochloride], the IC50 came to 0.019 µM.
Still for that read-out and setting: to `CC(=O)Nc1nc(CCc2ccc(CCNC(=N)N)cc2)cs1` [Production Example 25, N-(4-{2-[4-(2-{[amino(imino)methyl]amino}ethyl)phenyl]ethyl}-1,3-thiazol-2-yl)acetamide] belongs 0.0057 µM; to `CC(=O)Nc1nc(CCc2ccc(NC(=N)N)cc2)c(CN2CC[C@H](C(=O)N(C)C)C2)s1` [Production Example 14, (3S)-1-({2-(acetylamino)-4-[2-(4-{[amino(imino)methyl]amino}phenyl)ethyl]-1,3-thiazol-5-yl}methyl)-N,N-dimethyl-3-pyrrolidinecarboxamide dihydrochloride], 0.014 µM; to `CC(=O)Nc1nc(CCc2ccc(CC(=O)NC(=N)N)cc2)cs1` [Production Example 9, 2-(4-{2-[2-(acetylamino)-1,3-thiazol-4-yl]ethyl}phenyl)-N-[amino(imino)methyl]acetamide], 0.0026 µM.
In the case of `CC(=O)Nc1nc(CCc2ccc(NC(=N)N)cc2)c(CN(C)C(=O)c2ccc([N+](=O)[O-])cc2)s1` [Production Example 19, N-({2-(acetylamino)-4-[2-(4-{[amino(imino)methyl]amino}phenyl)ethyl]-1,3-thiazol-5-yl}methyl)-N-methyl-4-nitrobenzamide hydrochloride], the IC50 turned out to be 0.032 µM.
On the same count and under the same terms, to `CC(=O)Nc1nc(CCc2ccc(NC(=N)N)cc2)c(Cc2cccc(S(C)(=O)=O)c2)s1` [Production Example 1, N-{4-[2-(4-{[amino(imino)methyl]amino}phenyl)ethyl]-5-[3-(methylsulfonyl)benzyl]-1,3-thiazol-2-yl}acetamide] belongs 0.016 µM.

Test system in another data set: not given
Assay: not given
Conditions: not given
In the case of `CC(=O)Nc1nc(CCc2ccc(NC(=N)N)cc2)c(Cc2cccc(S(C)(=O)=O)c2)s1` [Production Example 1, N-{4-[2-(4-{[amino(imino)methyl]amino}phenyl)ethyl]-5-[3-(methylsulfonyl)benzyl]-1,3-thiazol-2-yl}acetamide], the melting point is 212 to 213.5 °C.
The compound `CC(=O)Nc1nc(-c2ccc(CCNC(=N)N)cc2)c(Cc2ccc(S(C)(=O)=O)cc2)s1.Cl` came in with a melting point of 217 to 218.5 °C.
